ChEMBL document CHEMBL5728630, “Aryl, heteroaryl, and heterocyclic pharmaceutical compounds for treatment of medical disorders” (2021)

molecular target: Complement factor D (Homo sapiens, UniProt P00746); assay: Factor D Assay: Human Factor D (purified from human serum, Complement Technology, Inc.) at 80 nM final concentration is incubated with test compound at various concentrations for 5 min at room temperature in 50 mM Tris, 1M NaCl, pH 7.5. A synthetic substrate Z-L-Lys-SBz and DTNB (Ellman's reagent) are added to final concentrations of 100 μM each. Absorbance at 405 nm (A405) is recorded at 30 second intervals for 30 min using a microplate spectrophotometer. IC50 values are calculated by nonlinear regression of complement Factor D reaction rates as a function of test compound concentration.
Sequence (P00746 whole entry): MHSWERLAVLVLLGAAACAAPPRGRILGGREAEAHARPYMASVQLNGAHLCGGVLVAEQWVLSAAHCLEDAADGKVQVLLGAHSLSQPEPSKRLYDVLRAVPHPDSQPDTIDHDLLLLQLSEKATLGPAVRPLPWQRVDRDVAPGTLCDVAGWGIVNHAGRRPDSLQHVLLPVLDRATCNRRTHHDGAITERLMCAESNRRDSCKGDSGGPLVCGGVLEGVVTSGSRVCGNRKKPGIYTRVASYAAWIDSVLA

Q: For CC(=O)c1nn(CC(=O)N2[C@H](C(=O)Nc3cccc(Br)n3)C[C@@]3(C)C[C@@H]23)c2ccc(-c3cnc(OC4CS(=O)(=O)C4)nc3)cc12, which IC50 is on record?
A: < 1000 nM

Q: Which IC50 does the source give for CC(=O)c1nn(CC(=O)N2[C@H](C(=O)Nc3nc(Br)ccc3C)C[C@@]3(C)C[C@@H]23)c2ccc(-c3cnc(C)nc3)cc12 [VEMIRCOPAN] here?
A: > 10000 nM

Q: For CC(=O)c1nn(CC(=O)N2[C@H](C(=O)NCc3ccncc3)C[C@@]3(C)C[C@@H]23)c2c(C)cc(-c3cnc(C)nc3)cc12, which IC50 is on record?
A: < 1000 nM

Q: With CC(=O)c1nn(CC(=O)N2[C@H](C(=O)Nc3nc(Br)ccc3C)C[C@@]3(CN4CC(O)C4)C[C@@H]23)c2cnc(-c3cnc(C)nc3)cc12 as the compound, how does the IC50 read?
A: < 1000 nM

Q: Which IC50 does the source give for CC(=O)c1nn(CC(=O)N2[C@H](C(=O)Nc3cc(F)cc(Br)n3)C[C@@]3(C)C[C@@H]23)c2c(C)nc(-c3cnc(C)nc3)cc12 here?
A: < 1000 nM

Q: Which IC50 does the source give for CC(=O)c1nn(CC(=O)N2[C@H](C(=O)NCCN3CCCCC3)C[C@@]3(C)C[C@@H]23)c2c(C)cc(-c3cnc(C)nc3)cc12 here?
A: > 10000 nM

Q: With CC(=O)c1nn(CC(=O)N2[C@H](C(=O)Nc3nc(Br)ccc3C)C[C@@]3(C)C[C@@H]23)c2ccc(-c3cnc(OC4CS(=O)(=O)C4)nc3)cc12 as the compound, how does the IC50 read?
A: < 1000 nM

Q: How did the IC50 turn out when CC(=O)c1nn(CC(=O)N2[C@H](C(=O)NCCCN)C[C@@]3(C)C[C@@H]23)c2ccc(-c3cnc(C)nc3)cc12 was run?
A: > 10000 nM

Q: CC(=O)c1nn(CC(=O)N2[C@H](C(=O)Nc3cncc(Br)n3)C[C@@]3(C)C[C@@H]23)c2c(C)nc(-c3cnc(C)nc3)cc12 was tested. Which IC50 did it give?
A: < 1000 nM

Q: For Cc1ncc(-c2ccc3c(c2)c(C(=O)NC(C)(C)C)nn3CC(=O)N2[C@H](C(=O)Nc3nc(Br)ccc3C)C[C@@]3(C)C[C@@H]23)cn1, which IC50 is on record?
A: > 10000 nM

Q: With CC(=O)c1nn(CC(=O)N2[C@H](C(=O)NCc3ccccn3)C[C@@]3(C)C[C@@H]23)c2c(C)cc(-c3cnc(C)nc3)cc12 as the compound, how does the IC50 read?
A: < 1000 nM

Q: With CC(=O)c1nn(CC(=O)N2[C@H](C(=O)Nc3nc(Br)ccc3C)C[C@@]3(C)C[C@@H]23)c2c(C)cc(-c3cnc(C4(F)COC4)nc3)cc12 as the compound, how does the IC50 read?
A: < 1000 nM

Q: How did the IC50 turn out when CC(=O)c1nn(CC(=O)N2[C@H](C(=O)Nc3nc(Br)ccc3C)C[C@@]3(C#N)C[C@@H]23)c2cnc(-c3cnc(C)nc3)cc12 was run?
A: < 1000 nM

Q: For CC(=O)c1nn(CC(=O)N2[C@H](C(=O)Nc3nc(OC(F)(F)F)ccc3C)C[C@@]3(C)C[C@@H]23)c2c(C)nc(-c3cnc(C)nc3)cc12, which IC50 is on record?
A: < 1000 nM

Q: For CC(=O)c1nn(CC(=O)N2[C@H](C(=O)Nc3nc(Br)ccc3CN3CCc4ccccc4C3)C[C@@]3(C)C[C@@H]23)c2cnc(-c3cnc(C)nc3)cc12, which IC50 is on record?
A: < 1000 nM

Q: C=Cc1nn(CC(=O)N2[C@H](C(=O)Nc3nc(Br)ccc3C)C[C@@]3(C)C[C@@H]23)c2cnc(-c3cnc(C)nc3)cc12 was tested. Which IC50 did it give?
A: < 1000 nM

Q: For CC(=O)c1nn(CC(=O)N2[C@H](C(=O)Nc3nc(Br)ccc3C)C[C@@]3(CN(C)C)C[C@@H]23)c2c(C)nc(-c3cnc(C)nc3)cc12, which IC50 is on record?
A: < 1000 nM

Q: For CC(=O)c1nn(CC(=O)N2[C@H](C(=O)Nc3nc(Br)ccc3C)C[C@@]3(CC#N)C[C@@H]23)c2cnc(-c3cnc(C)nc3)cc12, which IC50 is on record?
A: < 1000 nM

Q: For CC(=O)c1nn(CC(=O)N2[C@H](C(=O)N[C@H](C)[C@H]3CC3(Cl)Cl)C[C@@]3(C)C[C@@H]23)c2cnc(-c3cnc(C)nc3)cc12, which IC50 is on record?
A: < 1000 nM

Q: Which IC50 does the source give for CC(=O)c1nn(CC(=O)N2[C@H](C(=O)Nc3nc(Br)ccc3C)C[C@@]3(CNCc4ccccc4F)C[C@@H]23)c2c(C)cc(-c3cnc(C)nc3)cc12 here?
A: < 1000 nM

Q: With CC(=O)c1nn(CC(=O)N2[C@H](C(=O)NCc3ccccc3F)C[C@@]3(C)C[C@@H]23)c2c(C)cc(-c3cnc(C)nc3)cc12 as the compound, how does the IC50 read?
A: < 1000 nM

Q: COCc1ncc(-c2cc3c(C(C)=O)nn(CC(=O)N4[C@H](C(=O)Nc5nc(Br)ccc5C)C[C@@]5(C)C[C@@H]45)c3cn2)cn1 was tested. Which IC50 did it give?
A: < 1000 nM

Q: CC(=O)c1nn(CC(=O)N2[C@H](C(=O)N[C@@H](C)c3ccccc3)C[C@@]3(C)C[C@@H]23)c2c(C)cc(-c3cnc(C)nc3)cc12 was tested. Which IC50 did it give?
A: < 1000 nM

Q: CC(=O)c1nn(CC(=O)N2[C@H](C(=O)Nc3nc(Br)ccc3CCCF)C[C@@]3(C)C[C@@H]23)c2cnc(-c3cnc(C)nc3)cc12 was tested. Which IC50 did it give?
A: < 1000 nM

Q: With CCC[C@@]12C[C@@H](C(=O)Nc3nc(Br)ccc3C)N(C(=O)Cn3nc(C(C)=O)c4cc(-c5cnc(C)nc5)ncc43)[C@@H]1C2 as the compound, how does the IC50 read?
A: < 1000 nM

Q: For CCCNC(=O)[C@@H]1C[C@@]2(C)C[C@H]2N1C(=O)Cn1nc(C(C)=O)c2cc(-c3cnc(C)nc3)ccc21, which IC50 is on record?
A: < 1000 nM

Q: How did the IC50 turn out when CC(=O)c1nn(CC(=O)N2[C@H](C(=O)NCc3cccnn3)C[C@@]3(C)C[C@@H]23)c2c(C)cc(-c3cnc(C)nc3)cc12 was run?
A: < 1000 nM

Q: With CCCNC(=O)[C@@H]1C[C@@]2(C)C[C@H]2N1C(=O)Cn1nc(C(C)=O)c2cc(-c3cnc(C)nc3)cc(C)c21 as the compound, how does the IC50 read?
A: < 1000 nM

Q: With CC(=O)c1nn(CC(=O)N2[C@H](C(=O)N[C@@H](C)C(F)=C(C)C)C[C@@]3(C)C[C@@H]23)c2cnc(-c3cnc(C)nc3)cc12 as the compound, how does the IC50 read?
A: < 1000 nM

Q: How did the IC50 turn out when COCc1ccc(Br)nc1NC(=O)[C@@H]1C[C@@]2(CN(C)C)C[C@H]2N1C(=O)Cn1nc(C(C)=O)c2cc(-c3cnc(C)nc3)ccc21 was run?
A: < 1000 nM

Q: How did the IC50 turn out when CC(=O)c1nn(CC(=O)N2[C@H](C(=O)Nc3nc(Br)ccc3C(O)CO)C[C@@]3(C)C[C@@H]23)c2cnc(-c3cnc(C)nc3)cc12 (stereo not given in full) was run?
A: < 1000 nM

Q: Which IC50 does the source give for CC(=O)c1nn(CC(=O)N2[C@H](C(=O)Nc3nc(Br)ccc3C)C[C@@]3(CCCF)C[C@@H]23)c2cnc(-c3cnc(C)nc3)cc12 here?
A: < 1000 nM

Q: For CC(=O)c1nn(CC(=O)N2[C@H](C(=O)Nc3nc(Br)ccc3CN3CCn4c(nnc4C(F)(F)F)C3)C[C@@]3(C)C[C@@H]23)c2cnc(-c3cnc(C)nc3)cc12, which IC50 is on record?
A: < 1000 nM

Q: With COc1ncc(-c2cc3c(C(C)=O)nn(CC(=O)N4[C@H](C(=O)Nc5nc(Br)ccc5C)C[C@@]5(C)C[C@@H]45)c3c(C)n2)cn1 as the compound, how does the IC50 read?
A: < 1000 nM

Q: Which IC50 does the source give for CC(=O)c1nn(CC(=O)N2[C@H](C(=O)Nc3cncc(Br)n3)C[C@@]3(C)C[C@@H]23)c2cnc(-c3cnc(C)nc3)cc12 here?
A: < 1000 nM

Q: C#CCNC(=O)c1nn(CC(=O)N2[C@H](C(=O)Nc3nc(Br)ccc3C)C[C@@]3(C)C[C@@H]23)c2ccc(-c3cnc(C)nc3)cc12 was tested. Which IC50 did it give?
A: < 1000 nM

Q: Which IC50 does the source give for CC(=O)c1nn(CC(=O)N2[C@H](C(=O)NCC(C)C)C[C@@]3(C)C[C@@H]23)c2c(C)cc(-c3cnc(C)nc3)cc12 here?
A: < 1000 nM

Q: How did the IC50 turn out when CC(=O)c1nn(CC(=O)N2[C@H](C(=O)NCCc3ccccc3)C[C@@]3(C)C[C@@H]23)c2c(C)cc(-c3cnc(C)nc3)cc12 was run?
A: < 1000 nM

Q: How did the IC50 turn out when CC(=O)c1nn(CC(=O)N2[C@H](C(=O)NCc3ccc(F)cc3)C[C@@]3(C)C[C@@H]23)c2c(C)cc(-c3cnc(C)nc3)cc12 was run?
A: < 1000 nM

Q: Which IC50 does the source give for CC(=O)c1nn(CC(=O)N2[C@H](C(=O)NCc3ccccc3C)C[C@@]3(C)C[C@@H]23)c2c(C)cc(-c3cnc(C)nc3)cc12 here?
A: < 1000 nM

Q: How did the IC50 turn out when CC(=O)c1nn(CC(=O)N2[C@H](C(=O)Nc3nc(Br)ccc3C)C[C@@]3(C)C[C@@H]23)c2c(C)cc(-c3cnc(O)nc3)cc12 was run?
A: < 1000 nM

Q: Which IC50 does the source give for CC(=O)c1nn(CC(=O)N2[C@H](C(=O)Nc3nc(Br)ccc3C)C[C@@]3(CNC(=O)C4CCCC4(F)F)C[C@@H]23)c2c(C)cc(-c3cnc(C)nc3)cc12 (stereo not given in full) here?
A: < 1000 nM

Q: With COc1cccc(CNC(=O)[C@@H]2C[C@@]3(C)C[C@H]3N2C(=O)Cn2nc(C(C)=O)c3cc(-c4cnc(C)nc4)cc(C)c32)c1 as the compound, how does the IC50 read?
A: < 1000 nM

Q: For CC(=O)c1nn(CC(=O)N2[C@H](C(=O)NCc3cncnc3)C[C@@]3(C)C[C@@H]23)c2c(C)cc(-c3cnc(C)nc3)cc12, which IC50 is on record?
A: < 1000 nM

Q: Which IC50 does the source give for CC(=O)c1nn(CC(=O)N2[C@@H](C(=O)Nc3nc(Br)ccc3C)C[C@]3(C)C[C@H]23)c2ccc(-c3cnc(C)nc3)cc12 here?
A: > 10000 nM
